Values quoted from earlier work as cited in patent publication US20260130928A1, “COMBINATION OF AKR1C3 ACTIVATED ANTICANCER PRODRUG COMPOUND AND ANALGESIC DRUG FOR TREATING CANCER PATIENTS ACCOMPANIED BY PAIN” (ASCENTAWITS PHARMACEUTICALS, LTD., priority 2022, published 2026).
Read-outs that look alike come from different tables or passages of the source.

Details: cited from earlier work; for AUC0-t / CL (L/h/m^2) / Cmax / T1/2 / Tmax / Vdss (L/m^2): patients, mean
[1] = OBI-3424 dose level 1 mg/m^2, infusion
[2] = OBI-3424 dose level 2 mg/m^2, infusion
[3] = OBI-3424 dose level 4 mg/m^2, infusion
[4] = OBI-3424 dose level 6 mg/m^2, infusion
[5] = OBI-3424 dose level 8 mg/m^2, infusion
[6] = OBI-3424 dose level 10 mg/m^2, infusion
[7] = OBI-3424 dose level 12 mg/m^2, infusion
[8] = OBI-3424 dose level 14 mg/m^2, infusion

Structure (SMILES): C[C@H](OP(=O)(N1CC1)N1CC1)c1ccc([N+](=O)[O-])c(Oc2cccc(C(=O)N(C)C)c2)c1 [AST-3424]
- AUC0-t [1]: 217.10 ng·h/mL
- CL (L/h/m^2) [1]: 4.74 L/h/m^2
- Cmax [1]: 289.30 ng/mL
- T1/2 [1]: 17.4 min
- Tmax [1]: 27.6 min
- Vdss (L/m^2) [1]: 2.45 L/m^2
- AUC0-t [2]: 298.00 ng·h/mL
- CL (L/h/m^2) [2]: 8.85 L/h/m^2
- Cmax [2]: 375.80 ng/mL
- T1/2 [2]: 18.6 min
- Tmax [2]: 30 min
- Vdss (L/m^2) [2]: 4.13 L/m^2
- AUC0-t [3]: 650.90 ng·h/mL
- CL (L/h/m^2) [3]: 7.74 L/h/m^2
- Cmax [3]: 803.50 ng/mL
- T1/2 [3]: 12.6 min
- Tmax [3]: 19.8 min
- Vdss (L/m^2) [3]: 2.68 L/m^2
- AUC0-t [4]: 1278.10 ng·h/mL
- CL (L/h/m^2) [4]: 4.84 L/h/m^2
- Cmax [4]: 1360.30 ng/mL
- T1/2 [4]: 44.4 min
- Tmax [4]: 30 min
- Vdss (L/m^2) [4]: 3.72 L/m^2
- AUC0-t [5]: 1678.40 ng·h/mL
- CL (L/h/m^2) [5]: 6.53 L/h/m^2
- Cmax [5]: 1613.10 ng/mL
- T1/2 [5]: 40.2 min
- Tmax [5]: 25.2 min
- Vdss (L/m^2) [5]: 3.97 L/m^2
- AUC0-t [6]: 2037.00 ng·h/mL
- CL (L/h/m^2) [6]: 4.92 L/h/m^2
- Cmax [6]: 2654.70 ng/mL
- T1/2 [6]: 34.2 min
- Tmax [6]: 30 min
- Vdss (L/m^2) [6]: 3.06 L/m^2
- AUC0-t [7]: 2159.40 ng·h/mL
- CL (L/h/m^2) [7]: 8.20 L/h/m^2
- Cmax [7]: 2481.90 ng/mL
- T1/2 [7]: 33 min
- Tmax [7]: 26.4 min
- Vdss (L/m^2) [7]: 4.33 L/m^2
- AUC0-t [8]: 2131.80 ng·h/mL
- CL (L/h/m^2) [8]: 8.49 L/h/m^2
- Cmax [8]: 2619.20 ng/mL
- T1/2 [8]: 33 min
- Tmax [8]: 25.2 min
- Vdss (L/m^2) [8]: 4.31 L/m^2
- accumulation of exposure (Cmax and AUC) (between the two doses (Cycle 1 Day1 and Cycle 1 Day8)): no accumulation of exposure
